Test results from ChEMBL document CHEMBL5053510, “Discovery of AS-1763: A Potent, Selective, Noncovalent, and Orally Available Inhibitor of Bruton's Tyrosine Kinase” (J Med Chem, 2021).
Active and inactive are the calls of the source. No cut-off for these calls is given here.

Legend:
[1] = MRT (0 to last) in dog at 5 mg/kg, po; assay type: ADME, organism-based, Canis lupus familiaris; conditions: in vivo
[2] = biological target: Epithelial discoidin domain-containing receptor 1 (Homo sapiens, UniProt Q08345); assay: Inhibition of human DDR1 (444 - 876 residues) expressed in baculovirus expression system by mobility shift assay
OCI-Ly10 [3] = assay: Antitumor activity against human OCILY10 cells in SCID mouse assessed as tumor growth inhibition at 60 mg/kg, po bid measured after 63 days; assay type: functional; conditions: OCI-Ly10, 1512 h, time 63 day, read-out: TGI
[4] = Plasma protein binding in human; assay type: ADME, cell-free; conditions: read-out: PPB (converted)
[5] = MRT (0 to last) in mouse at 15 mg/kg, po; assay type: ADME, organism-based; conditions: in vivo
[6] = Clearence in mouse at 2 mg/kg, iv; assay type: ADME, organism-based; conditions: in vivo
[7] = biological target: Proto-oncogene tyrosine-protein kinase Src (Homo sapiens, UniProt P12931); assay: Inhibition of human full length SRC expressed in baculovirus expression system by mobility shift assay
[8] = AUC (0 to last) in rat at 15 mg/kg, po; assay type: ADME, organism-based; set-up: time 0 - last, dose 15 mg/kg, route po; conditions: in vivo
[9] = Plasma protein binding in rat; assay type: ADME, cell-free; conditions: read-out: PPB (converted)
[10] = biological target: Tyrosine-protein kinase BTK (Mus musculus) (UniProt P35991); assay: Inhibition of BTK in […] mouse blood assessed as reduction in BTK phosphorylation at Tyr223 residue at 15 mg/kg, po measured after 8 hrs; assay type: organism-based
[11] = Initial plasma concentration in mouse at 2 mg/kg, iv; assay type: ADME, organism-based
[12] = Initial plasma concentration in mouse at 15 mg/kg, po; assay type: ADME, organism-based; conditions: in vivo
[13] = biological target: Tyrosine-protein kinase ITK/TSK (Homo sapiens, UniProt Q08881); assay: Inhibition of human ITK (2 - 620 residues) expressed in baculovirus expression system by mobility shift assay
[14] = Initial plasma concentration in dog at 1 mg/kg, iv; assay type: ADME, organism-based, Canis lupus familiaris
[15] = Apparent permeability of the compound in human Caco-2 cells; assay type: ADME, cell-based
[16] = Clearence in rat at 2 mg/kg, iv; assay type: ADME, organism-based; conditions: in vivo
[17] = Volume of distribution in steady state rat at 2 mg/kg, iv; assay type: ADME, organism-based; conditions: in vivo, read-out: Vdss
HEL 299 = assay: Cytotoxicity against human HEL 299 cells assessed as cell growth inhibition measured after 96 hrs; assay type: cell-based; conditions: HEL 299, 96 h
[18] = AUC (0 to last) in dog at 1 mg/kg, iv; assay type: ADME, organism-based, Canis lupus familiaris; set-up: time 0 - last, dose 1 mg/kg, route iv; conditions: in vivo
[19] = biological target: Tyrosine-protein kinase BTK (Mus musculus) (UniProt P35991); assay: In vivo inhibition of autophosphorylation of BTK at Y223 in mouse at 7.5 to 30 mg/kg, po measured up to 8 hrs by Western blot analysis; assay type: functional, organism-based; conditions: dose 7.5-30 mg/kg
[20] = Half life in rat at 15 mg/kg, po; assay type: ADME, organism-based; conditions: in vivo
[21] = AUC (0 to last) in mouse at 2 mg/kg, iv; assay type: ADME, organism-based; set-up: time 0 - last, dose 2 mg/kg, route iv; conditions: in vivo
[22] = Initial plasma concentration in dog at 5 mg/kg, po; assay type: ADME, organism-based, Canis lupus familiaris; conditions: in vivo
[23] = test system: Tyrosine-protein kinase BTK (Homo sapiens), Q06187 [C481S]; assay: Inhibition of human full-length BTK C481S mutant (2 to 659 residues) expressed in baculovirus expression system at 0.3 uM by mobility shift assay
[24] = biological target: Tyrosine-protein kinase ITK/TSK (Homo sapiens) (UniProt Q08881); assay: Inhibition of human ITK (2 - 620 residues) expressed in baculovirus expression system at 0.3 uM by mobility shift assay
[25] = AUC (0 to last) in dog at 5 mg/kg, po; assay type: ADME, organism-based, Canis lupus familiaris; set-up: time 0 - last, dose 5 mg/kg, route po; conditions: in vivo
[26] = Volume of distribution at steady state in dog at 2 mg/kg, iv; assay type: ADME, organism-based, Canis lupus familiaris; conditions: in vivo, read-out: Vdss
[27] = Half life in mouse at 2 mg/kg, iv; assay type: ADME, organism-based; conditions: in vivo
[28] = biological target: Muscle, skeletal receptor tyrosine-protein kinase (Homo sapiens) (UniProt O15146); assay: Inhibition of human MUSK expressed in baculovirus expression system at 0.3 uM by mobility shift assay
OCI-Ly10 [29] = assay: Antitumor activity against human OCILY10 cells xenografted in SCID mouse assessed as tumor growth inhibition at 6 mg/kg, po bid measured after 63 days; assay type: functional; conditions: OCI-Ly10, 1512 h, time 63 day, read-out: TGI
[30] = test system: Proto-oncogene tyrosine-protein kinase receptor Ret (Homo sapiens), P07949 [S891A]; assay: Inhibition of human RET S891A mutant (658 - 1114) expressed in baculovirus expression system at 0.3 uM by mobility shift assay
[31] = Oral bioavailability in rat at 15 mg/kg; assay type: ADME, organism-based; conditions: in vivo
[32] = MRT (0 to last) in mouse at 2 mg/kg, iv; assay type: ADME, organism-based; conditions: in vivo
Cytochrome P450 2B6 = Cytochrome P450 2B6 (Homo sapiens, UniProt P20813); assay: Inhibition of CYP2B6 (unknown origin); assay type: ADME
[33] = Initial plasma concentration in rat at 15 mg/kg, po; assay type: ADME, organism-based; conditions: in vivo
[34] = biological target: Cytoplasmic tyrosine-protein kinase BMX (Homo sapiens) (UniProt P51813); assay: Inhibition of human full-length BMX (1 to 675 residues) expressed in baculovirus expression system at 0.3 uM by mobility shift assay
[35] = biological target: Tyrosine-protein kinase BTK (Homo sapiens, UniProt Q06187); assay: Inhibition of wild type BTK (unknown origin) in presence of 1 mM ATP by microplate reader assay
Cytochrome P450 3A4 = Cytochrome P450 3A4 (Homo sapiens, UniProt P08684); assay: Inhibition of CYP3A4 (unknown origin); assay type: ADME
[36] = biological target: Tyrosine-protein kinase BTK (Mus musculus) (UniProt P35991); assay: Inhibition of BTK in […] mouse blood assessed as reduction in BTK phosphorylation at Tyr223 residue at 30 mg/kg, po measured after 8 hrs; assay type: organism-based
[37] = Tmax in rat at 15 mg/kg, po; assay type: ADME, organism-based; conditions: in vivo
[38] = Oral bioavailability in dog at 5 mg/kg; assay type: ADME, organism-based, Canis lupus familiaris; conditions: in vivo

Sequence of Tyrosine-protein kinase BTK (Mus musculus) (P35991 whole entry): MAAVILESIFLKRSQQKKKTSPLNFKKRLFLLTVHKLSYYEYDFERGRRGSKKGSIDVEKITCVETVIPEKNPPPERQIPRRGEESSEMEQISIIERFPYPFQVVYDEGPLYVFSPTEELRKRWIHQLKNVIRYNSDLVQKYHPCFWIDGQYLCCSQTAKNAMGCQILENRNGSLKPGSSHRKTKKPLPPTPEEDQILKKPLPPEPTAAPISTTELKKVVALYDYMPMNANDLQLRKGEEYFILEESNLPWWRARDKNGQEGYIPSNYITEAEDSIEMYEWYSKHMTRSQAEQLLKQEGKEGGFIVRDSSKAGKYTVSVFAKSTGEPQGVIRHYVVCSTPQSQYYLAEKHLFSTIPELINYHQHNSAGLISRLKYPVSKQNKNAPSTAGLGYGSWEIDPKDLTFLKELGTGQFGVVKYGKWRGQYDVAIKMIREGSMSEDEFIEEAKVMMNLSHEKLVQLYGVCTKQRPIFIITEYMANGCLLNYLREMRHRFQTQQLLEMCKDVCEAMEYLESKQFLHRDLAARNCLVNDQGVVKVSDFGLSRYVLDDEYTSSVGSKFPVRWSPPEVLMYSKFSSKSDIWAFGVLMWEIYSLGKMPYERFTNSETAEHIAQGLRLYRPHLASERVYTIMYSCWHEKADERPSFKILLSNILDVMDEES
Sequence of Proto-oncogene tyrosine-protein kinase receptor Ret (Homo sapiens), P07949 [S891A] (P07949 whole entry S891A): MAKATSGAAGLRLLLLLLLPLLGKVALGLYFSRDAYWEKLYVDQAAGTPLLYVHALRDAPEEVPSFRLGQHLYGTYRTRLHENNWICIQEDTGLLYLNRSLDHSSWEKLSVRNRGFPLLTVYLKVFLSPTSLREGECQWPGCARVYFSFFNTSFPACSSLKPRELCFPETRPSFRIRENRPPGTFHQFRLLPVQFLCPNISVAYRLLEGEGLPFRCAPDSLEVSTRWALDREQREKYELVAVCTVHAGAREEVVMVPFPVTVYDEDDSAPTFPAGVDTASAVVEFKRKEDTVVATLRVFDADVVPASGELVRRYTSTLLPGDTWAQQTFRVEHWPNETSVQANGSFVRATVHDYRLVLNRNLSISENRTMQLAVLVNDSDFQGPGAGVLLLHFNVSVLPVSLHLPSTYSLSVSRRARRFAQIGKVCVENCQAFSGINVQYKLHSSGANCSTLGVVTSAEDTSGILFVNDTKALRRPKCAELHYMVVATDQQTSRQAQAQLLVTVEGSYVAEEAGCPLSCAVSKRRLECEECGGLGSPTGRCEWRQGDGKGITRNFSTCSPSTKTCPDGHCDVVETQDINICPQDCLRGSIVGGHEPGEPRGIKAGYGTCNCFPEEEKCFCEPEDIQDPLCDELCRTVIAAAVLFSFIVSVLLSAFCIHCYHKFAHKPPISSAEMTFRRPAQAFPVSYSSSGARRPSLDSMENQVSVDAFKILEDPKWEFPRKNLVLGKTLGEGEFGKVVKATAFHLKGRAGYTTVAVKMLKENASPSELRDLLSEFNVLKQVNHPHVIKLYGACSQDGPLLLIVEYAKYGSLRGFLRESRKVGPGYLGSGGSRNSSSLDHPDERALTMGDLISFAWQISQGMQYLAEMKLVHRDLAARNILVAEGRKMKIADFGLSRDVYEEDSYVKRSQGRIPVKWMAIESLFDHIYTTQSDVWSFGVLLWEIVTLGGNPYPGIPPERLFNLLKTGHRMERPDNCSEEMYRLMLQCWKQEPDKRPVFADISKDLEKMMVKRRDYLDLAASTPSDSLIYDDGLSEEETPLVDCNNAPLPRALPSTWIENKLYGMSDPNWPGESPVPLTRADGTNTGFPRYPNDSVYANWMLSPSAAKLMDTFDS
Sequence of Tyrosine-protein kinase BTK (Homo sapiens), Q06187 [C481S] (Q06187 whole entry C481S, the tested form may be a part): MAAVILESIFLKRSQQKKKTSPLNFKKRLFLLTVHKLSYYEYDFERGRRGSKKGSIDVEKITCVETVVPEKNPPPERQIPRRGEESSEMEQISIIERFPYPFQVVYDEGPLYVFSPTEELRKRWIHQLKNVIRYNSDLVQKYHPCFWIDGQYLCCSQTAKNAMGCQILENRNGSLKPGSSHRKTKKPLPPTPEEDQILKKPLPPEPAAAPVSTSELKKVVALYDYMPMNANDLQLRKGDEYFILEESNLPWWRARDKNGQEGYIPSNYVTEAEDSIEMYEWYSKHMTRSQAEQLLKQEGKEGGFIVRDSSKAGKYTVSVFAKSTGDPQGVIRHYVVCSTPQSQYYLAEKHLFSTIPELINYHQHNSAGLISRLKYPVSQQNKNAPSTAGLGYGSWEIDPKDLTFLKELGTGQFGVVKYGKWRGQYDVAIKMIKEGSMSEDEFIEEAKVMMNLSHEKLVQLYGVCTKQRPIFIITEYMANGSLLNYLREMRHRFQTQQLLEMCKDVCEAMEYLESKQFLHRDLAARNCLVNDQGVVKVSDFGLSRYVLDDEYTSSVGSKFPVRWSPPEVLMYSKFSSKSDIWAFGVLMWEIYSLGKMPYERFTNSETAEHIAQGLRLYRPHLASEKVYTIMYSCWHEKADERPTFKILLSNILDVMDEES
Sequence of Proto-oncogene tyrosine-protein kinase Src (P12931 2-536 limits assumed): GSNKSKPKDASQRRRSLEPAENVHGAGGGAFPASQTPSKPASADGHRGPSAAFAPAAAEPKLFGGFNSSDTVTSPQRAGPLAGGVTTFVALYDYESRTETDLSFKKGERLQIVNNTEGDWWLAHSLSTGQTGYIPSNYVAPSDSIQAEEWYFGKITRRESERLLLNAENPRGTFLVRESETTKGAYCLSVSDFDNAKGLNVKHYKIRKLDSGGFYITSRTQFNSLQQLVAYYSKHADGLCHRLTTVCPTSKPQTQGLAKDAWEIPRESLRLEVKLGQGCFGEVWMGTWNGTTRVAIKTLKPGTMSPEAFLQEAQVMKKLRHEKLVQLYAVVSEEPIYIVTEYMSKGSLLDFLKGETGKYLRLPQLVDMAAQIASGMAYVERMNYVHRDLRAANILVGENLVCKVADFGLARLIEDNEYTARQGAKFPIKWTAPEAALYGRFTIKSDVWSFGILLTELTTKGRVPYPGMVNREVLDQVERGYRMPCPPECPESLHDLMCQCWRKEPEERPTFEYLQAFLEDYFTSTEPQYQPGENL
Sequence of Cytoplasmic tyrosine-protein kinase BMX (Homo sapiens) (P51813 whole entry, the tested form may be a part): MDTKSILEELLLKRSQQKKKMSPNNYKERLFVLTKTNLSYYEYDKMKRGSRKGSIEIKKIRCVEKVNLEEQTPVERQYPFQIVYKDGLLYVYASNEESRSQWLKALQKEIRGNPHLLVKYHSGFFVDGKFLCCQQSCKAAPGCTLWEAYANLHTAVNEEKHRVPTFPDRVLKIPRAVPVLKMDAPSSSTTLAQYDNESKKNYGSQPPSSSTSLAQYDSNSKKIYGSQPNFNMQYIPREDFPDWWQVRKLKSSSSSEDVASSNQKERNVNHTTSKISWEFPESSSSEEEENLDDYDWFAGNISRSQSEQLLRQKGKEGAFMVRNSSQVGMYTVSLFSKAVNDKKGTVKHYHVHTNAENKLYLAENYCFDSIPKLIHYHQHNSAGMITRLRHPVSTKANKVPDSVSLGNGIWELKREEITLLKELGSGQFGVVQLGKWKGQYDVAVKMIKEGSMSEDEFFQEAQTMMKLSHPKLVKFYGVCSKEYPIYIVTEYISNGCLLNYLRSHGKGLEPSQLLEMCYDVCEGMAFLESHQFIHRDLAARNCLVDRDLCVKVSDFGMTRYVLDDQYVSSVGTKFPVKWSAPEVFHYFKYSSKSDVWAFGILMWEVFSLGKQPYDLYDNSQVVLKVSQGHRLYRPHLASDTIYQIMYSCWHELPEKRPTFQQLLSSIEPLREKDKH
Sequence of Cytochrome P450 3A4 (P08684 whole entry): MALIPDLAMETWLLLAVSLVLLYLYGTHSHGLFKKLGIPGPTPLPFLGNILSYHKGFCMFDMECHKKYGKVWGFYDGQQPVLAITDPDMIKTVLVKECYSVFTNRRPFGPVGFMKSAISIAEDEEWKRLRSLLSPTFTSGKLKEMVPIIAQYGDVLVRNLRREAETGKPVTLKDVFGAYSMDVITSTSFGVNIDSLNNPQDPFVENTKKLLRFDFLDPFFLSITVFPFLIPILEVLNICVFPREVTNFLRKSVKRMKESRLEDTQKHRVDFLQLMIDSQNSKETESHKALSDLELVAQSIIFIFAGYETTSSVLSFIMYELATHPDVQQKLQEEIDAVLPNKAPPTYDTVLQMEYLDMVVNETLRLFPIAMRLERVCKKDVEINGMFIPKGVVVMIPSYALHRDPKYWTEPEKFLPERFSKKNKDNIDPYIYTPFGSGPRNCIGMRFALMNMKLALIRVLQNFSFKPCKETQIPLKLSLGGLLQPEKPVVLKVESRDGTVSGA
Sequence of Epithelial discoidin domain-containing receptor 1 (Q08345 whole entry, the tested form may be a part): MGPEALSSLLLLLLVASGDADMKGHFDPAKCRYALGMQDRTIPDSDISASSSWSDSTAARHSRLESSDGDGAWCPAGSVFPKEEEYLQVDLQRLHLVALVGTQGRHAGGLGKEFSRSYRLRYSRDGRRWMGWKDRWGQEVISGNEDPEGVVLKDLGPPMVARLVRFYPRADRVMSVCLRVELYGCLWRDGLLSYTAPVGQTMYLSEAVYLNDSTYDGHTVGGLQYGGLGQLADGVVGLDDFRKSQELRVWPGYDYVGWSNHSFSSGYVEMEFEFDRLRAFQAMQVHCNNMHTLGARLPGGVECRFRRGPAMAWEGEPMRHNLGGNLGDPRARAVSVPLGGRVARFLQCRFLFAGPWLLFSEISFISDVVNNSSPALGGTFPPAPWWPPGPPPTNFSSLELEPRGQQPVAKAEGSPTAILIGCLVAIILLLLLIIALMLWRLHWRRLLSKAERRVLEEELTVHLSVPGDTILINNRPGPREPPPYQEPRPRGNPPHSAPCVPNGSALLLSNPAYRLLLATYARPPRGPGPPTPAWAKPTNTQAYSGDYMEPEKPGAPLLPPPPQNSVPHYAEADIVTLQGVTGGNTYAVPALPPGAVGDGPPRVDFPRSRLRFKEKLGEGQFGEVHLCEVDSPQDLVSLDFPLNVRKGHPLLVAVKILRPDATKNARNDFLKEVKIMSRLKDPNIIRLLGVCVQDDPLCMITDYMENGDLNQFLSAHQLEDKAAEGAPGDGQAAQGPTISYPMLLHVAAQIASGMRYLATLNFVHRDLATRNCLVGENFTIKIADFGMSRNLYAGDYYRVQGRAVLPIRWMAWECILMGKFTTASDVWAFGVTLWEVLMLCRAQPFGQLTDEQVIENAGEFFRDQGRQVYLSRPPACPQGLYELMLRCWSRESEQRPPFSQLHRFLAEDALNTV

`Nc1nc(-c2cccc(-n3ccc4cc(C5CC5)cc(F)c4c3=O)c2CO)c2cc(C3=CCN(C4COC4)CC3)[nH]c2n1` [MILREBRUTINIB] gave an MRT last [1] of 2.3 h, an IC50 [2] of 221 nM and an inhibition in vivo at 60 mg/kg (OCI-Ly10 [3]) of 112%. For the same compound, the fraction unbound [4] was 0.02, the MRT last [5] was 3.58 h and the clearance [6] was 18.8 mL/min/kg. The IC50 [7] was 291 nM, the AUC(0-t) [8] was 1870 ng·h/mL and the fraction unbound [9] was 0.012. For the same compound, the inhibition [10] was “Active”, the C0 [11] was 972 ng/mL and the C0 [12] was 1717 ng/mL. For the same compound, the IC50 [13] was 60.9 nM, the C0 [14] was 1280 ng/mL and the Papp [15] was 1.42 ×10⁻⁶ cm/s. It also gave a clearance [16] of 20.3 mL/min/kg, a Vd [17] of 3.64 L/kg and an IC50 (HEL 299) of 6.37 µM. For the same compound, the AUC(0-t) [18] was 734 ng·h/mL, the inhibition [19] was “Active” and the half-life [20] was 214 min. It also gave an AUC(0-t) [21] of 1750 ng·h/mL, a C0 [22] of 896 ng/mL and an inhibition [23] of 99.8%. It also gave an inhibition [24] of 78.8%, an AUC(0-t) [25] of 2490 ng·h/mL and a Vd [26] of 1.77 L/kg. For the same compound, the half-life [27] was 67.2 min, the inhibition [28] was 53.2% and the inhibition in vivo at 6 mg/kg (OCI-Ly10 [29]) was 74.5%. The inhibition [30] was 67%, the bioavailability [31] was 15.9% and the MRT last [32] was 1.36 h. The IC50 (Cytochrome P450 2B6) was greater than 10 µM, the C0 [33] was 418 ng/mL and the inhibition [34] was 97.7%. The IC50 [35] was 3.72 nM, the IC50 (Cytochrome P450 3A4) was greater than 10 µM and the inhibition [36] was “Active”. For the same compound, the Tmax [37] was 2 h and the bioavailability [38] was 68.1%.
